Experimental data: the kinase profiling compilation of Christmann-Franck et al. (2016)

Legend:
Test in all cases: KINOMEscan competition binding
Settings in all cases: compound 10.0 µM
[1] = molecular target: CLK2 (human) (UniProt P49760)
[2] = molecular target: BMPR2 (human) (UniProt Q13873)
[3] = molecular target: WEE2 (human) (UniProt P0C1S8)
[4] = molecular target: TIE1 (human) (UniProt P35590)
[5] = molecular target: FYN (human) (UniProt P06241)
[6] = molecular target: FGR (human) (UniProt P09769)
[7] = molecular target: PIP5K1A (human) (UniProt Q99755)
[8] = molecular target: PAK3 (human) (UniProt O75914)
[9] = molecular target: MAPK15 (human) (UniProt Q8TD08)
[10] = molecular target: SRPK1 (human) (UniProt Q96SB4)
[11] = molecular target: TYRO3 (human) (UniProt Q06418)
[12] = molecular target: CDK16 (human) (UniProt Q00536)
[13] = molecular target: ACVR1B (human) (UniProt P36896)
[14] = molecular target: RPS6KA1 KD2 (human) (UniProt Q15418)
[15] = molecular target: PRKCD (human) (UniProt Q05655)
[16] = molecular target: PRKACB (human) (UniProt P22694)
[17] = molecular target: MAP4K3 (human) (UniProt Q8IVH8)
[18] = molecular target: MAPKAPK2 (human) (UniProt P49137)
Chain of MAPKAPK2 (human) (P49137 whole entry, looked up): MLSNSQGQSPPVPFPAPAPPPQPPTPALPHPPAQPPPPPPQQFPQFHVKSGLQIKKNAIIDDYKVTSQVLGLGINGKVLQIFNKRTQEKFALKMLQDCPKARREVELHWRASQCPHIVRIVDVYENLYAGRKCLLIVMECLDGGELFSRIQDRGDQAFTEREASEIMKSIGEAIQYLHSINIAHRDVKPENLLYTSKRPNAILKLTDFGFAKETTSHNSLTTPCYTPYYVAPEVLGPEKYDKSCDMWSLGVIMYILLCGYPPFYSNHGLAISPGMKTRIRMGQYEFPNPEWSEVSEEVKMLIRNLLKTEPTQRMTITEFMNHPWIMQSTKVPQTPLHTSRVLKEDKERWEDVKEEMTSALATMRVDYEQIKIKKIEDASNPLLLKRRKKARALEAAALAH

[19] = molecular target: MAP2K1 (human) (UniProt Q02750)
[20] = molecular target: MAP4K1 (human) (UniProt Q92918)
[21] = molecular target: MARK4 (human) (UniProt Q96L34)
[22] = molecular target: CSK (human) (UniProt P41240)
[23] = molecular target: STK36 (human) (UniProt Q9NRP7)
[24] = molecular target: CDC42BPB (human) (UniProt Q9Y5S2)
[25] = molecular target: IGF1R (human) (UniProt P08069)
[26] = molecular target: HIPK1 (human) (UniProt Q86Z02)
[27] = molecular target: PIK3C2B (human) (UniProt O00750)
[28] = molecular target: PRKCQ (human) (UniProt Q04759)
Chain of PRKCQ (human) (Q04759 whole entry, looked up): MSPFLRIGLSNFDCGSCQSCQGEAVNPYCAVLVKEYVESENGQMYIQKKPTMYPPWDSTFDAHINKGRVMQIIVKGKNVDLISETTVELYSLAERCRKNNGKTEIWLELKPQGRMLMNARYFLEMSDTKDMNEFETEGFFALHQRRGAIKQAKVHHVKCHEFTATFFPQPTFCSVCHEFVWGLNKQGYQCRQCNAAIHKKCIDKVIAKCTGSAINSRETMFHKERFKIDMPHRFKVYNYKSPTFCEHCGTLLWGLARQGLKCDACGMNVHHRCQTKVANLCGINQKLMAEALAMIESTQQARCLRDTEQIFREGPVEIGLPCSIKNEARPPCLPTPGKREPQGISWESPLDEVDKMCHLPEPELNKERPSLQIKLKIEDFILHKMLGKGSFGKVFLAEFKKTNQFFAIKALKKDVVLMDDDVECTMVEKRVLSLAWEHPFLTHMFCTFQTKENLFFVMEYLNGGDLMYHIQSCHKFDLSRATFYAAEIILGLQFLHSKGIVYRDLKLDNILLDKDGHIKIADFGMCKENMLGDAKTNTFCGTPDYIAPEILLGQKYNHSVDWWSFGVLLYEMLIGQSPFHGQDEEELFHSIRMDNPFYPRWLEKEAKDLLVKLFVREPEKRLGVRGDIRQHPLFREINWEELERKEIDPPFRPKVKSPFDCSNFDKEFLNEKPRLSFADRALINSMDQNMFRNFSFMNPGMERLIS

[29] = molecular target: PTK2 (human) (UniProt Q05397)
[30] = molecular target: EPHA3 (human) (UniProt P29320)
Chain of EPHA3 (human) (P29320 whole entry, looked up): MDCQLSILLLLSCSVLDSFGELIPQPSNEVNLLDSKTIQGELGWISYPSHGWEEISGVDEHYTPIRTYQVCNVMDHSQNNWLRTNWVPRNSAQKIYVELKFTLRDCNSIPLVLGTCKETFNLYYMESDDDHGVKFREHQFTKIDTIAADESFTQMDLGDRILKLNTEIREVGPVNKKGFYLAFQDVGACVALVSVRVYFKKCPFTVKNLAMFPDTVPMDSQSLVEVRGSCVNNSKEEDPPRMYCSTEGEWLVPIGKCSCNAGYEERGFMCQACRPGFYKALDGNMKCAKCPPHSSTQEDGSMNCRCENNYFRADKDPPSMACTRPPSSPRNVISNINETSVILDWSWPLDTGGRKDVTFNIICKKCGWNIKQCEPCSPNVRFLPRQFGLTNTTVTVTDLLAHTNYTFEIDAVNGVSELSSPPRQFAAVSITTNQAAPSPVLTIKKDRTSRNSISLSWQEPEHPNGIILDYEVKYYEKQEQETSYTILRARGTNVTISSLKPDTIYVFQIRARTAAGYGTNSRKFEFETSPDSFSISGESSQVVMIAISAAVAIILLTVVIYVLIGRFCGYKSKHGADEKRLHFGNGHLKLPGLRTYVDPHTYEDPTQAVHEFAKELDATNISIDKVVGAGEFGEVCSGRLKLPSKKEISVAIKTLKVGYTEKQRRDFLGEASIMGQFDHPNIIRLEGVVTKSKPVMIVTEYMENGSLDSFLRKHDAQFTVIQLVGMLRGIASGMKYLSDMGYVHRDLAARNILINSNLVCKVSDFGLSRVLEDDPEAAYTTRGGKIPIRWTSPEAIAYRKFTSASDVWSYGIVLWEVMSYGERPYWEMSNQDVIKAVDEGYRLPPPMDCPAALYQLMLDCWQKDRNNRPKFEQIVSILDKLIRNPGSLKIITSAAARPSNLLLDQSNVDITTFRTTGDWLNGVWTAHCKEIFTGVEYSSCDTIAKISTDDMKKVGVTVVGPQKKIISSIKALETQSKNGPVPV

[31] = molecular target: STK25 (human) (UniProt O00506)
Chain of STK25 (human) (O00506 whole entry, looked up): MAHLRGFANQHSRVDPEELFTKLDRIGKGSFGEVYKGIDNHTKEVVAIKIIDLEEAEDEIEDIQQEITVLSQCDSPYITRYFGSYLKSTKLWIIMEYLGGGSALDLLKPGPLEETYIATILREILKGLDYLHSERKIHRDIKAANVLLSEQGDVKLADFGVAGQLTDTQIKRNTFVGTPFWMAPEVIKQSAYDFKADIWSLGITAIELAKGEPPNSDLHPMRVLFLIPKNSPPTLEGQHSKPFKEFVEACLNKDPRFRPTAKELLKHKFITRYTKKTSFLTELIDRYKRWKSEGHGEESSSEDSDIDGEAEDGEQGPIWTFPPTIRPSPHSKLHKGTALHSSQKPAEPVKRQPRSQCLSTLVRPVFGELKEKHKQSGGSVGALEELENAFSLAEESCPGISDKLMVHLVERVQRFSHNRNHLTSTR

[32] = molecular target: STK32C (human) (UniProt Q86UX6)
Chain of STK32C (human) (Q86UX6 whole entry, looked up): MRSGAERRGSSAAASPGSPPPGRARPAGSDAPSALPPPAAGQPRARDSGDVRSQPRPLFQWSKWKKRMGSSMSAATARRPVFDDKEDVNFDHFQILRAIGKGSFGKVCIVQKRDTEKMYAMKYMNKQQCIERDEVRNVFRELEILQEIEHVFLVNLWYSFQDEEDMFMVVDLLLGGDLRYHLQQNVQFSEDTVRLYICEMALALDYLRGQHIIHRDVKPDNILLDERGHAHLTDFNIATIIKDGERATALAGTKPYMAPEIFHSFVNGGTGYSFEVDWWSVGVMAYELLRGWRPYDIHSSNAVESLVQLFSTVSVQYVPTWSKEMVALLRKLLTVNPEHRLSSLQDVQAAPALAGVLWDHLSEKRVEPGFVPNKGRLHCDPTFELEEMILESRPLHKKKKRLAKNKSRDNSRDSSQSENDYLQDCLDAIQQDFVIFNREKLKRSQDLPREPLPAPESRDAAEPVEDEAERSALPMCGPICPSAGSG

Chain of TIE1 (human) (P35590 whole entry, looked up): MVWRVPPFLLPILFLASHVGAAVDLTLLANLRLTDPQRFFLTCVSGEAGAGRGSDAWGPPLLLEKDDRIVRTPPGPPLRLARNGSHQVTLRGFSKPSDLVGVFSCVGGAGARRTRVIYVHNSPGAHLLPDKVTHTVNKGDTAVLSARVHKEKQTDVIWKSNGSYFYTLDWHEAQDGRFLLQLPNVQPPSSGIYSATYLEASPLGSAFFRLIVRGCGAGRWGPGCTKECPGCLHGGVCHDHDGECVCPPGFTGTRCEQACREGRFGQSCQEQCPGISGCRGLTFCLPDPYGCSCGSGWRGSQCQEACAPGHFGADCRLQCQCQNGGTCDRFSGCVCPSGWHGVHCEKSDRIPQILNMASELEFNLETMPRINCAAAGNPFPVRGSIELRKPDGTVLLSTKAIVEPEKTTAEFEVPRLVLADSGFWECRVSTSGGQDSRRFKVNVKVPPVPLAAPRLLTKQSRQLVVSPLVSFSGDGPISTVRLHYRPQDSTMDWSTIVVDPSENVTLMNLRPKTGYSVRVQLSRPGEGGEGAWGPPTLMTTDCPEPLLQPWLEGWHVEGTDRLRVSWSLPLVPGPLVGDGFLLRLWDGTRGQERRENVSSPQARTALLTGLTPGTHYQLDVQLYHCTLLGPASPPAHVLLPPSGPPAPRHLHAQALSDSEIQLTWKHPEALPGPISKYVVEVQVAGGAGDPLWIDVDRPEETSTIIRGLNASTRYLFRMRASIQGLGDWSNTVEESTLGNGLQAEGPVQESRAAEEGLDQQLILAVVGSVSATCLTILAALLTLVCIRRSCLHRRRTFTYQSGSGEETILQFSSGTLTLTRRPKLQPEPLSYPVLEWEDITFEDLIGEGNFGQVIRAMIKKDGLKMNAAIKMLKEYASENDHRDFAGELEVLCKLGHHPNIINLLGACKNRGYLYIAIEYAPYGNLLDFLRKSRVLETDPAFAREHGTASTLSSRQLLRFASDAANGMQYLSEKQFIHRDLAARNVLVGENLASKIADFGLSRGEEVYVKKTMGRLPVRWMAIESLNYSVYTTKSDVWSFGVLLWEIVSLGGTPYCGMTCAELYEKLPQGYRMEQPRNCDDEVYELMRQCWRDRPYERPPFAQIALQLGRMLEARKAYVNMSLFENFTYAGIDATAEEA
Chain of FYN (human) (P06241 whole entry, looked up): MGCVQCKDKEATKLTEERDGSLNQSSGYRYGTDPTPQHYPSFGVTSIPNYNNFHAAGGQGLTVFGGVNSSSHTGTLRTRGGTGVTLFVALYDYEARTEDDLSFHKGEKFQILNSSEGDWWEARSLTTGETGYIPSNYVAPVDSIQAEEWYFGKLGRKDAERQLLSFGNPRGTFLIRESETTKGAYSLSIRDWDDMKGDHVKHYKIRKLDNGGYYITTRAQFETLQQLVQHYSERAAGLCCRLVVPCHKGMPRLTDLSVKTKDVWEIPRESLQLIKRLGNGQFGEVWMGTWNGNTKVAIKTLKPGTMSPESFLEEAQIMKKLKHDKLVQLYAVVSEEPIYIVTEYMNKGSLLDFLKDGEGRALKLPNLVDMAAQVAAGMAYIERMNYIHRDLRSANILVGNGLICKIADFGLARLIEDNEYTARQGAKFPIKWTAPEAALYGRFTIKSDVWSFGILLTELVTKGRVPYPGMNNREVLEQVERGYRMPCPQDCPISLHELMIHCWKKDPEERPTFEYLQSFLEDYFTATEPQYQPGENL

| Compound | kinase still bound, per cent of control [1] | kinase still bound, per cent of control [2] | kinase still bound, per cent of control [4] | kinase still bound, per cent of control [5] | kinase still bound, per cent of control [6] | kinase still bound, per cent of control [7] | kinase still bound, per cent of control [8] | kinase still bound, per cent of control [9] | kinase still bound, per cent of control [10] | kinase still bound, per cent of control [11] | kinase still bound, per cent of control [12] | kinase still bound, per cent of control [13] | kinase still bound, per cent of control [14] | kinase still bound, per cent of control [15] | kinase still bound, per cent of control [16] | kinase still bound, per cent of control [17] | kinase still bound, per cent of control [18] | kinase still bound, per cent of control [19] | kinase still bound, per cent of control [20] | kinase still bound, per cent of control [21] | also measured |
| --- | --- | --- | --- | --- | --- | --- | --- | --- | --- | --- | --- | --- | --- | --- | --- | --- | --- | --- | --- | --- | --- |
| COc1cc(C)c(Sc2cnc(NC(=O)c3ccc(CNC(C)C(C)C)cc3)s2)cc1C(=O)N1CCN(C(C)=O)CC1 (stereo not drawn) | 3.7% | 100% | 11% | 100% | 100% | 100% | 100% | 100% | 100% | 100% | 100% | 100% | 100% | 100% | 100% | 100% | 100% | 100% | 25% | 100% | kinase still bound, per cent of control [3]: 3.6%; kinase still bound, per cent of control [22]: 100%; kinase still bound, per cent of control [23]: 100%; kinase still bound, per cent of control [24]: 100%; kinase still bound, per cent of control [25]: 4.1%; kinase still bound, per cent of control [26]: 100%; kinase still bound, per cent of control [27]: 100%; kinase still bound, per cent of control [28]: 100%; kinase still bound, per cent of control [29]: 100%; kinase still bound, per cent of control [30]: 25%; kinase still bound, per cent of control [31]: 100%; kinase still bound, per cent of control [32]: 100% |
| COc1ccc(N(C(=O)Oc2cc(C(=O)Nc3cccc(C(F)(F)F)c3)ccc2C)c2ccnc(Nc3ccc(N4CCN(C)CC4)cc3)n2)c(OC)c1 | 100% | 1.1% | 3.8% | 1.4% | 1.2% | 100% | 11% | 100% | 100% | 100% | 100% | 100% | 100% | 100% | 27% | 100% | 100% | 100% | 4.6% | 100% | kinase still bound, per cent of control [22]: 1.2%; kinase still bound, per cent of control [23]: 1.2%; kinase still bound, per cent of control [24]: 100%; kinase still bound, per cent of control [25]: 100%; kinase still bound, per cent of control [28]: 100%; kinase still bound, per cent of control [29]: 4.6%; kinase still bound, per cent of control [30]: 0.1%; kinase still bound, per cent of control [31]: 100%; kinase still bound, per cent of control [32]: 100% |
| COc1cc(N2CCC(C(N)=O)CC2)ccc1Nc1nc(N)c(Cl)c(Nc2ccccc2S(=O)(=O)C(C)C)n1 | 4.6% | 100% | 29% | 100% | 100% | 100% | 100% | 100% | 100% | 100% | 100% | 100% | 30% | 100% | 100% | 100% | 100% | 100% | 100% | 100% | kinase still bound, per cent of control [3]: 100%; kinase still bound, per cent of control [22]: 100%; kinase still bound, per cent of control [23]: 100%; kinase still bound, per cent of control [24]: 100%; kinase still bound, per cent of control [25]: 0.65%; kinase still bound, per cent of control [26]: 100%; kinase still bound, per cent of control [27]: 100%; kinase still bound, per cent of control [28]: 100%; kinase still bound, per cent of control [29]: 0%; kinase still bound, per cent of control [30]: 100%; kinase still bound, per cent of control [31]: 100%; kinase still bound, per cent of control [32]: 33% |
